# According to ChEMBL document CHEMBL1201862, “PubChem BioAssay data set” (2004):
# Activity calls are given as the source filed them.
# Legend:
# [1] = target: T1, Short transient receptor potential channel 4 (Mus musculus, UniProt Q9QUQ5); experiment: block of DAMGO-driven TRPC4 calcium entry – cell-based, HEK293 TRPC4/mu-opioid, Fluo-4 calcium, dose response (AID 434942); format: functional;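 further: potency of inhibitors blocking the TRPC4 calcium response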
# T1 sequence (Q9QUQ5 whole entry): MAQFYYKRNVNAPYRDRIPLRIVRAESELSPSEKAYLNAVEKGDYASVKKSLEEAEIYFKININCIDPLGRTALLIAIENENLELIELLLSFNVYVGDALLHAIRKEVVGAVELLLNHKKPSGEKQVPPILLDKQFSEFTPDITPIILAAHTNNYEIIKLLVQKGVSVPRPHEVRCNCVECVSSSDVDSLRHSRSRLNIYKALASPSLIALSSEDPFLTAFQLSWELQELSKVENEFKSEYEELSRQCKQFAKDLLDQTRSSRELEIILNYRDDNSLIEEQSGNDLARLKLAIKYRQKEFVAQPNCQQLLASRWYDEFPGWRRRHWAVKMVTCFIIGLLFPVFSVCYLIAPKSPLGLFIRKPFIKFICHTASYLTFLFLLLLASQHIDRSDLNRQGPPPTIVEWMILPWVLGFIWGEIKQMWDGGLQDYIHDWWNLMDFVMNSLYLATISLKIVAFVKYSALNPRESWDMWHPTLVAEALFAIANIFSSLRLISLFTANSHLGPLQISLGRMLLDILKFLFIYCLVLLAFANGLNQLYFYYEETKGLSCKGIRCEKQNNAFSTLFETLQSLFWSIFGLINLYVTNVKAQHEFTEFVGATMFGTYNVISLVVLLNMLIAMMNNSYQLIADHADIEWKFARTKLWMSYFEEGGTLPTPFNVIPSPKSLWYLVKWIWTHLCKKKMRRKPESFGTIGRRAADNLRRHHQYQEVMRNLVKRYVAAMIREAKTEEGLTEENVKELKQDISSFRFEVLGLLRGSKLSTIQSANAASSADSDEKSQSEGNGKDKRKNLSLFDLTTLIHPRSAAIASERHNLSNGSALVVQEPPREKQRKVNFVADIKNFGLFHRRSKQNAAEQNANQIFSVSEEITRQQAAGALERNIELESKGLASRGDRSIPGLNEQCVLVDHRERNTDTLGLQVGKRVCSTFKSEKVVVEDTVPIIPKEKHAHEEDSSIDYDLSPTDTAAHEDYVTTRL
# [2] = target: FAD-linked sulfhydryl oxidase ALR (Homo sapiens, UniProt P55789); experiment: ALR-catalysed DTT oxidation blockers – biochemical, H2O2 detection, luminescence, cherry-pick, dose response (AID 493248)
# Large T antigen = Large T antigen (Simian virus 40, UniProt P03070); format: functional, Betapolyomavirus macacae;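 further: Confirmatory-stage PubChem screen for compounds that inhibit SV40 T antigen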
# [3] = target: Glucose-6-phosphate 1-dehydrogenase (Homo sapiens, UniProt P11413); experiment: inhibition of Homo sapiens G6PD, dose series – biochemical, fluorescence, selectivity assay for P. falciparum G6PD inhibitor project, dose response (AID 504792); format: functional
# [4] = HIV-1 Vif–A3G interaction blockers – biochemical, TR-FRET, GST-Vif 1-94, biotin-A3G peptide, dose response retest, primary screen (AID 1117319); format: functional;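 further: TR-FRET signal of purified GST-Vif binding a biotinylated A3G peptide; inhibitors lower the FRET signal by blocking Vif and A3G binding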
# Prothrombin = Prothrombin (Bos taurus, UniProt P00735); experiment: thrombin protease inhibitors – biochemical, fluorescence polarization, uHTS hits, dose response (AID 602369); format: functional
# [5] = target: 26S proteasome non-ATPase regulatory subunit 14 (Homo sapiens, UniProt O00487); experiment: inhibition of proteasome subunit RPN11 – biochemical, fluorescence polarization, uHTS hits, confirmation (AID 602368); format: functional
# [6] = target: 72 kDa type IV collagenase (Homo sapiens, UniProt P08253); experiment: Dose Response validation of uHTS RPN11 inhibitor hits using a MMP-2 Fluorescence assay.; format: functional
# Cytochrome P450 2D6 = Cytochrome P450 2D6 (Homo sapiens, UniProt P10635);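 further: CYP2D6 member of a cytochrome P450 panel assay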
# [7] = viability of PTEN-deleted HCT116 cells – cell-based, HCT116 PTEN knockout, dose response (AID 1047); format: functional;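 further: HCT116 colon tumor cells with PTEN knocked out; cells exposed to compound for 60 hours before readout; potency for loss of cell viability measured by luminescence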
# [8] = viability of HCT116 lacking mutant beta-catenin – cell-based, human colon tumor, dose response (AID 1045); format: functional;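 further: HCT116 colon tumor cells with beta catenin knocked out; cells exposed to compound for 60 hours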
# [9] = microbe, parasite or virus in culture; format: functional; details: Mycobacterium tuberculosis
# [10] = target: T2, Rac GTPase-activating protein 1 (Homo sapiens, UniProt Q9H0H5); experiment: blockers of MgcRacGAP-driven Rac1 GTP hydrolysis – biochemical, ADP Hunter fluorescence, primary and confirmatory, confirmation (AID 624330); format: functional
# T2 sequence (Q9H0H5 whole entry): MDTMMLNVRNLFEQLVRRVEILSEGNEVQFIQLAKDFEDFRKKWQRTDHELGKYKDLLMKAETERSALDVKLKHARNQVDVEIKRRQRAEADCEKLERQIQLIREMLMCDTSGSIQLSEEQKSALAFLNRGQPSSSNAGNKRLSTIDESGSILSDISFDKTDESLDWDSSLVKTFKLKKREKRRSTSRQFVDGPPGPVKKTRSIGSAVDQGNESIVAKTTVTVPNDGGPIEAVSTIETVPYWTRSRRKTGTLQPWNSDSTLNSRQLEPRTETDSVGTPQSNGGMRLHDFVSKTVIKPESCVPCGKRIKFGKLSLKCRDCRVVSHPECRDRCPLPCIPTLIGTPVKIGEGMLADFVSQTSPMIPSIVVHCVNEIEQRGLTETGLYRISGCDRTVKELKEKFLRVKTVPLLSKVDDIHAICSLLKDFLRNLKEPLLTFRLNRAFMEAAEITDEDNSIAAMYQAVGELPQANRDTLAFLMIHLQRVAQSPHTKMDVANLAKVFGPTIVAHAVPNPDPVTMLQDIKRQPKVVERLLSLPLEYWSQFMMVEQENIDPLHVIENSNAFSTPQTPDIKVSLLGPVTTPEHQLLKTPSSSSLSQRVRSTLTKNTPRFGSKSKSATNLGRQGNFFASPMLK
# [11] = target: T3, High affinity choline transporter 1 (Homo sapiens, UniProt Q9GZV3); experiment: human choline transporter blockers, potency – cell-based, 5-point CRC, membrane potential dye, dose response (AID 504840); format: functional
# T3 sequence (Q9GZV3 whole entry): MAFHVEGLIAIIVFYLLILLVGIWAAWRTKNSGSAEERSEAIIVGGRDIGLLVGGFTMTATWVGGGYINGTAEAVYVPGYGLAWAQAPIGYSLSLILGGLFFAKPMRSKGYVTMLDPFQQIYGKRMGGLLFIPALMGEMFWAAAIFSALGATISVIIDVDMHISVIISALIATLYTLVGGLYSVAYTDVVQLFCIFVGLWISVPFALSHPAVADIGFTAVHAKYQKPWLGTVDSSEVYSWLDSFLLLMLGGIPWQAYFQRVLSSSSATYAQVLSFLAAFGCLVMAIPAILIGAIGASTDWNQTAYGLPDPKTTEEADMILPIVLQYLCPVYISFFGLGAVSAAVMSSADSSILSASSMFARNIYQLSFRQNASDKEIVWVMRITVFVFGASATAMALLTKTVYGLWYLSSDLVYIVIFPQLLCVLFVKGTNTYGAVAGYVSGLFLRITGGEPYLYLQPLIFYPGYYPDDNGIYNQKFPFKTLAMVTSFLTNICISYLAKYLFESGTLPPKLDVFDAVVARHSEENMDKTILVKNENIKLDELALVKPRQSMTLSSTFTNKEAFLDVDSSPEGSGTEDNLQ
# cells = format: functional
# BJ [12] = experiment: BJ-TERT-LT-ST fibroblast viability loss – cell-based, RAS-independent, luminescence, dose response (AID 1935); format: functional; details: Homo sapiens;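 further: BJ fibroblasts immortalized with TERT plus LT and ST oncogenes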
# BJ [13] = experiment: BJ-TERT fibroblast viability loss – cell-based, RAS-independent, luminescence, dose response (AID 1933); format: functional; details: Homo sapiens
# BJ [14] = experiment: cells; format: functional, cell-based; details: Homo sapiens
# [15] = DRD fibroblast viability loss – cell-based, non-viral oncogenic, luminescence, dose response (AID 1934); format: functional; details: Homo sapiens
# [16] = target: T4, DNA repair protein RAD52 homolog (Homo sapiens, UniProt P43351); format: functional, biochemical
# T4 sequence (P43351 whole entry): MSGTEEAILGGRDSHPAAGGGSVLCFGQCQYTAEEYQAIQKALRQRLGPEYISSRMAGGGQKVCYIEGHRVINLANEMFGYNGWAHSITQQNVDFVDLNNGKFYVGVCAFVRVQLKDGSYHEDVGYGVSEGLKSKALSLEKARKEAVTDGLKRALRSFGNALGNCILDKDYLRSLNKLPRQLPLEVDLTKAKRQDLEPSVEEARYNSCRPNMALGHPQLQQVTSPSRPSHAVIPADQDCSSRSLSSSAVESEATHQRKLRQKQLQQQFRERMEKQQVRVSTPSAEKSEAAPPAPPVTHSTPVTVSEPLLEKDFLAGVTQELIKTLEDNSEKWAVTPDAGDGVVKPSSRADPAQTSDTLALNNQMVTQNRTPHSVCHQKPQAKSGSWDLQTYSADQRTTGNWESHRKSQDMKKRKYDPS
# 26S proteasome non-ATPase regulatory subunit 14, sequence (O00487 whole entry): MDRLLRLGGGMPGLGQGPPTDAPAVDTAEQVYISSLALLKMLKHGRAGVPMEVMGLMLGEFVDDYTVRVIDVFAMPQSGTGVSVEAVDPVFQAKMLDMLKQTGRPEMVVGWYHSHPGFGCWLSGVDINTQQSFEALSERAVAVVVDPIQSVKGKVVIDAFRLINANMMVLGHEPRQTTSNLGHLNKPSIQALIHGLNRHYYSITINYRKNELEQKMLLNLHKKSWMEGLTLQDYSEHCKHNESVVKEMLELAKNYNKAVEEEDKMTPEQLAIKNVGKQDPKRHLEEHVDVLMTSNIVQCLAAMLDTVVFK
# FAD-linked sulfhydryl oxidase ALR, sequence (P55789 whole entry): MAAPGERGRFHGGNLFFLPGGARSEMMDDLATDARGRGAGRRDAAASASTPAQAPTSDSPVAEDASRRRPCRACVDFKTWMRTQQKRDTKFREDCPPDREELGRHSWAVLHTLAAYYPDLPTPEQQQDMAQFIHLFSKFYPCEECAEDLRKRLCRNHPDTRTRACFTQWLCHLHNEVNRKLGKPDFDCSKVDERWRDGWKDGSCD
# Glucose-6-phosphate 1-dehydrogenase, sequence (P11413 whole entry): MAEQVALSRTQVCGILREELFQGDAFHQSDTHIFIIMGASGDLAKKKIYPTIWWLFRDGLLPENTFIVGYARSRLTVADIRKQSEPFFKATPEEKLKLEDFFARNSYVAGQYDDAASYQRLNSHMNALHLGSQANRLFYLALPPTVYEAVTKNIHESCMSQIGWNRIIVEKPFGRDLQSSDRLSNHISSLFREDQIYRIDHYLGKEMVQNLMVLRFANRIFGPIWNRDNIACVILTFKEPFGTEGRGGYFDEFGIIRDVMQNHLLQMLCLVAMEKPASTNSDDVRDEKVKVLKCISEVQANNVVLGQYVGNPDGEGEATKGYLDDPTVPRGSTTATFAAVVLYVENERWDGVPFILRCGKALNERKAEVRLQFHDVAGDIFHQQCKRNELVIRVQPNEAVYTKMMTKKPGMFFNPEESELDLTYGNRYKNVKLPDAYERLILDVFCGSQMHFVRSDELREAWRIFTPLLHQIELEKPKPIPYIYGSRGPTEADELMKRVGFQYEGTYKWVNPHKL
# 72 kDa type IV collagenase, sequence (P08253 whole entry): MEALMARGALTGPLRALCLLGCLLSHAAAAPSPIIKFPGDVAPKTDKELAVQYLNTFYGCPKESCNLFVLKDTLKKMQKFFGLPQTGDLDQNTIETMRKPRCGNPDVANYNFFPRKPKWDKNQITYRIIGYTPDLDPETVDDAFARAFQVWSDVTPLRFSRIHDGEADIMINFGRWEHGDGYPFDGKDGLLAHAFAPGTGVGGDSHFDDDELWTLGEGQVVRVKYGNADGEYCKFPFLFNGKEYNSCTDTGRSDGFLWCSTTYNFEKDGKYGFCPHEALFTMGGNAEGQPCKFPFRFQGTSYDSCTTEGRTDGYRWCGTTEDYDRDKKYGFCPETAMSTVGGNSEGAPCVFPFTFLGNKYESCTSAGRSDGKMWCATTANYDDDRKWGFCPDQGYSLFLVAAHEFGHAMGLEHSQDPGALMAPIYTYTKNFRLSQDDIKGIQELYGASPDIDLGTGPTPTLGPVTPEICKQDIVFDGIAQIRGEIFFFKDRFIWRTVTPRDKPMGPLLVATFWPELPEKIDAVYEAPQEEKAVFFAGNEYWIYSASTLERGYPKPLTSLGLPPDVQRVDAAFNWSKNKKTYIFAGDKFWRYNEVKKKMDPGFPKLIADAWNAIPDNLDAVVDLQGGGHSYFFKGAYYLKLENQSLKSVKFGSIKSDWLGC
# Large T antigen, sequence (P03070 whole entry): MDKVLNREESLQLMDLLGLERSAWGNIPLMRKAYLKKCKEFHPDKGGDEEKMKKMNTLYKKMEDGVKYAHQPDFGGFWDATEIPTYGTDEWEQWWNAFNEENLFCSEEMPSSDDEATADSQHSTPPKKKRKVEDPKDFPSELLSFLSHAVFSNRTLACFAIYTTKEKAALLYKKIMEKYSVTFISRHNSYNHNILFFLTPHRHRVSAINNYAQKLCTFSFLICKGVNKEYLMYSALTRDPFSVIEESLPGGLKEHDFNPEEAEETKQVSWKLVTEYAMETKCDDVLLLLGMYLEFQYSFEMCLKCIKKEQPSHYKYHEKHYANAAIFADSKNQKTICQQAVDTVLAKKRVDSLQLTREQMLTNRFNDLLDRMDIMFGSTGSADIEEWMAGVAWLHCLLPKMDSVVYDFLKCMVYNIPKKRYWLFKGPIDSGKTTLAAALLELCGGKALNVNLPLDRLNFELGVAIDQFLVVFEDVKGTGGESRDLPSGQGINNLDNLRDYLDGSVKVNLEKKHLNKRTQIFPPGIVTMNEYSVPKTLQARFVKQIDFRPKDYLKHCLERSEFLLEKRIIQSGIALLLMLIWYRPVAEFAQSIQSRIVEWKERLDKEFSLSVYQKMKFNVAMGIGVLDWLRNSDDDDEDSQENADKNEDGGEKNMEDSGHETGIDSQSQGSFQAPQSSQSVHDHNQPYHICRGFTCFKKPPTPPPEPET
# Cytochrome P450 2D6, sequence (P10635 whole entry): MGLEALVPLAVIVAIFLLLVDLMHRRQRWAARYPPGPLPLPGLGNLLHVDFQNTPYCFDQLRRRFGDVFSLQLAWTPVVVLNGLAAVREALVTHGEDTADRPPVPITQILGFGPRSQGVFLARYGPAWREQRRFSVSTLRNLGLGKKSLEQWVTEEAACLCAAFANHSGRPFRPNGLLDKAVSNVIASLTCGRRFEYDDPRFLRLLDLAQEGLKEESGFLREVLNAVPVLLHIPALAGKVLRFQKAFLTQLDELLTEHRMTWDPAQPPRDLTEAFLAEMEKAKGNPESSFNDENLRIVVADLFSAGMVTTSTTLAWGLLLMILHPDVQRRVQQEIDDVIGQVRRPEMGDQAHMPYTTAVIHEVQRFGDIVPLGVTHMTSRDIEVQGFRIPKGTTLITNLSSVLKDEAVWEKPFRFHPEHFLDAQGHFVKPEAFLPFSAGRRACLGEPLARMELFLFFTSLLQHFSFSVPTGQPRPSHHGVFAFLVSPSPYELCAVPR
structure (smiles),measurement,setting,value
N#CCCn1cc(CNCc2ccccc2)c(-c2cccc([N+](=O)[O-])c2)n1,EC50,[1],3.76 µM (active)
CC(=O)N1CCN(c2ccc(NCc3cccc4ccccc34)cc2)CC1,AC50,[2],1.36 µM (active)
same,IC50,Large T antigen,10.1 µM (active)
CCN1CCN(c2nc(C)nc3c2sc(=S)n3C)CC1,IC50,[3],> 80 µM (inactive)
Cc1cccc(NC(=O)CSc2nnc(-c3cc(C)n(-c4ccccc4)c3C)o2)c1C,EC50,[1],2.11 µM (active)
CC(=O)Nc1ccc(NC(=O)c2sc3nc4c(c(-c5ccc(C)cc5)c3c2N)CCC4)cc1,IC50,[4],> 100 µM (active)
COc1ccc(O)c(-c2cc(-c3ccccc3[N+](=O)[O-])[nH]n2)c1,AC50,[2],4.33 µM (active)
Oc1ccc(Br)cc1CN1CCCCCCC1,AC50,[2],7.63 µM (active)
c1coc(CNc2nc(-c3cccs3)cs2)c1,IC50,[4],> 100 µM (active)
O=C1c2ccccc2S(=O)(=O)c2cc(N3CCOCC3)ccc21,IC50,Prothrombin,24 µM (active)
same,IC50,[5],10.9 µM (active)
same,IC50,[6],> 100 µM (inactive)
CCOc1cc(CNCCCN2CCOCC2)cc(Br)c1OCC(=O)Nc1cccc(C(F)(F)F)c1,AC50,Cytochrome P450 2D6,14.1 µM (inconclusive)
same,EC50,[1],6.68 µM (active)
same,EC50,[7],9.96 µM (active)
same,EC50,[8],7.97 µM (active)
same,CC50,[9],12.4 µM (active)
CCN(CC)c1ccc([C@H]2[C@@H]3CCCC[C@]3(O)CCN2CC(=O)NCc2ccco2)cc1,AC50,[2],1.54 µM (active)
Cn1c(=O)[nH]c(=O)c2c1nc(S)n2CCCc1ccccc1,IC50,[3],> 80 µM (inactive)
same,IC50,[10],19.7 µM (active)
O=C(O)c1ccccc1NC(=O)c1cc(-c2ccccc2)nc2ccccc12,AC50,[2],0.703 µM (active)
COC(=O)CN1C(=O)C(O)=C(C(C)=O)C1c1ccc([N+](=O)[O-])cc1 (configuration not stated),IC50,[4],> 100 µM (active)
Cc1ccc(CSc2nnc(CCNC(=O)OC(C)(C)C)o2)cc1,IC50,[11],12.9 µM (active)
CC1(C)OC(c2ccccc2)=C/C(=C\C=N\NC(=O)c2ccncc2)O1,IC50,cells,1.06 µM (active)
COc1ccc(C(C(C(=O)c2cccs2)N2CCOCC2)N2CCOCC2)cc1OC (configuration not stated),IC50,[4],> 100 µM (active)
COc1ccc(-c2cn3cc(C)ccc3n2)cc1Br,IC50,[3],> 80 µM (inactive)
O=C(CCCSc1nc2ccccc2s1)NC1=NCCS1,IC50,[11],12 µM (active)
CCOC(=O)N1CCN(C(=O)CCCn2c(=O)[nH]c3ccccc3c2=O)CC1,IC50,[11],13.2 µM (active)
CCOc1cc(/C=C2\SC(=S)N(NS(=O)(=O)c3ccc(C)cc3)C2=O)ccc1O,IC50,Prothrombin,30.4 µM (active)
same,IC50,[5],36.9 µM (active)
same,IC50,[6],73.8 µM (active)
COc1cc(C(=O)Nc2ccc3ccccc3c2)cc(OC)c1OC,EC50,BJ [12],1.44 µM (active)
same,EC50,BJ [13],3.2 µM (active)
same,EC50,BJ [14],> 150 µM (not active)
same,EC50,[15],1.33 µM (active)
CCOC(=O)C1(CC2CC2)CCN(Cc2cc(Cl)c(O)c(OC)c2)CC1,EC50,[1],3.76 µM (active)
COc1cc(C(F)(F)F)nc2c(Br)c(C(C)(C)C)nn12,EC50,[1],1.5 µM (active)
CCOc1ccccc1CNS(=O)(=O)c1ccc(-c2cnc(C3CC3)o2)cc1,EC50,BJ [12],0.703 µM (inconclusive)
same,EC50,BJ [13],0.535 µM (inconclusive)
same,EC50,BJ [14],46.3 µM (active)
same,EC50,[15],19.7 µM (inconclusive)
Cc1c(P(=S)(c2ccccc2)c2ccccc2)[n+]2ccccc2n1C,IC50,Prothrombin,62.8 µM (active)
same,IC50,[5],5.42 µM (active)
same,AC50,[16],10.4 µM (active)
same,IC50,[6],> 100 µM (inactive)
CCc1ccc(NC(=O)CCc2nc3sc4c(c3c(=O)[nH]2)CCCC4)cc1,IC50,Prothrombin,35.9 µM (active)
same,IC50,[5],37.6 µM (active)
same,IC50,[6],> 100 µM (inactive)
O=C(c1ccc(-n2cnnn2)cc1)N1CCOCC1,IC50,[4],> 100 µM (active)
CCOc1ccc(/C=N/OCC(=O)Nc2ccc3c(c2)OCO3)cc1,IC50,cells,18.1 µM (active)
CCC(=O)N1CCN(c2cc3c(cc2F)c(=O)c(C(=O)O)cn3CC)CC1,IC50,cells,6.76 µM (active)
COc1ccc(Cn2cnc3c([N+](=O)[O-])c(C)c(C)cc32)cc1,IC50,[11],12.3 µM (active)
